Test results published in US20250099475A1, “METHODS OF TREATING HYPERTENSION BY PERIODIC SUPPRESSION OF ALDOSTERONE SYNTHASE” (Mineralys Therapeutics, Inc., priority 2022, published 2025).

How the values were obtained:
[1] = biological target: T1, human CYP 11B1 (hCYP11B1) (Homo sapiens, UniProt P15538); assay: Assay of hCYP11B1 inhibition (11-deoxycortisol to cortisol); format: biochemical; details: mitochondrial fraction of V79 cells stably expressing hCYP11B1; substrate 11-deoxycortisol; read-out: Inhibition constant (Ki) hCYP11B1
T1 construct: expressed in transfected cells; host or cells: V79 cells (mitochondrial fraction)
T1 sequence (P15538 25-503): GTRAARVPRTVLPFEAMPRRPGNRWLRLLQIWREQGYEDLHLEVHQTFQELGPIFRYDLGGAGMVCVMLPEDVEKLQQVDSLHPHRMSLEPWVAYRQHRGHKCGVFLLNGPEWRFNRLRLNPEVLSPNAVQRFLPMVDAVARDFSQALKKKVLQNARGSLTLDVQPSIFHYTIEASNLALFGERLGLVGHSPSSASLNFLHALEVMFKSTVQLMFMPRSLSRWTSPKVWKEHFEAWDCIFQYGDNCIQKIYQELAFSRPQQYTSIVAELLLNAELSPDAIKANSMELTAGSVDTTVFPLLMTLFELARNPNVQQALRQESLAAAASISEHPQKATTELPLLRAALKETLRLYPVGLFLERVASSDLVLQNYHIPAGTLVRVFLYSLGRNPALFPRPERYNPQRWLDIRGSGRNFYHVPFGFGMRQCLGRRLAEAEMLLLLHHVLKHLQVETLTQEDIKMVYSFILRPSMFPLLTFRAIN
Method: The inhibitory effects of Compound A on human CYP 11B1 (hCYP11B1) and human CYP11B2 (hCYP11B2) enzyme activity were evaluated by determining the enzymatic conversion rates of 11-deoxycortisol to cortisol for hCYP11B1 and 11-DOC to aldosterone for hCYP11B2.

[2] = test system: plasma aldosterone concentrations (PACs); assay: Sodium-depleted cynomolgus monkey model; format: in vivo; details: single oral administration
Method: A sodium-depleted cynomolgus monkey model with secondary hyperaldosteronism was performed to evaluate the effect of Compound A on plasma aldosterone concentrations (PACs). The model used a low-sodium diet and 3 doses of 5 mg/kg furosemide. Two animals each were assigned to 6 groups consisting of a vehicle group and 5 Compound A (free base) groups (0.3, 1, 3, 10, and 30 mg/kg). Six crossovers were performed so that every animal was assigned to each group. Hyperaldosteronism was induced once every 3 weeks. PAC was determined by radioimmunoassay and measured during the 24 hours after Compound A administration.

[3] = 13-week repeat-dose oral toxicology study in rats; format: in vivo, rat; details: both sexes, Sprague Dawley, rat, in vivo, oral, 13-week, read-out: no observed adverse effect level (NOAEL)
Method: (§1) The toxicologic profile of Compound A was assessed in several toxicology studies, including 13-week repeat-dose oral studies in Sprague Dawley rats and cynomolgus monkeys, a standard battery of genotoxicity studies, preliminary embryo-fetal development studies in rats and rabbits, and in vitro and in vivo phototoxicity studies. Rats and monkeys were selected for the general toxicology studies on the basis of pharmacology and metabolism data that indicated these animals would have metabolism similar to that of humans. Studies were performed in accordance with GLP regulations.
(§2) Doses in the 13-week toxicology studies were 0, 50, 150, 450 (female), and 600 (male) mg/kg/d in Sprague Dawley rats. In cynomolgus monkeys (females and males), the doses were 0, 10, 30, and 100 mg/kg/d. Hematoxylin-and-eosin-stained sections (nominal thickness of approximately 5 μm) were prepared from the formalin-fixed paraffin-embedded organs/tissues of all animals in the toxicology studies.

Sprague Dawley rats = assay: 13-week repeat-dose oral toxicology study in rats; format: in vivo, rat; details: 13-week daily dosing, doses ≥150 mg/kg/d
Method: as §1, §2

CC(=O)N[C@H]1CC[C@H](NC(=O)CN2CCN(c3nncc(-c4ccc(C)cc4)n3)CC2)CC1 [Compound A]
Ki [1]: 475 nM
effect on PAC [2]: significantly decreased PAC
NOAEL at 13 weeks [3]: 50 mg/kg/day
histopathological findings (Sprague Dawley rats): vacuolation of zona fasciculata cells and hypertrophy of zona glomerulosa cells in the adrenal glands
